Source: patent US10501752B2, “Herbicide tolerant cotton event pDAB4468.19.10.3” (Dow AgroSciences LLC, priority 2012, dated 2019)

How the values were obtained:
[1] = tested on: cotton event pDAB4468.19.10.3 (aad-12); assay: Tolerance to butanoic acids of triclopyr and fluroxypyr in greenhouse trials (% injury); type: in vivo, Gossypium hirsutum; details: 2-3 leaf stage
Protocol: (§1) Herbicide tolerance was assessed following a single post-emergence application of the two molecules. Seed from cotton event pDAB4468.19.10.3 were heat treated in a water bath at 82.5° C. for 1 minute and then planted in metro mix 360 media and grown in a greenhouse. The temperatures in the greenhouse averaged 27° C. and the photoperiod was set at 16 hours of light and eight hours of dark, with maximum light intensity. Plants were allowed to grow until the 2-3 leaf stage of development and a non-randomized study was conducted with four replications and three treatments for each herbicide. […] In addition, a crop oil concentrate was added to a final concentration of 1.25%. Plants were sprayed in a track sprayer calibrated to deliver 187 L/ha of the formulated technical material. A non-transformed Coker 310 variety of cotton was used as a negative control.

[2] = tested on: non-transformed Coker 310 variety of cotton (WT); assay: Butanoic acids of triclopyr and fluroxypyr greenhouse trials, negative control plants (% injury); type: in vivo, Gossypium hirsutum; details: 2-3 leaf stage
Protocol: as §1

Row | Compound | % Injury ([1]; 140 g ai/ha, 1 DAA) [b %] | % Injury ([1]; 140 g ai/ha, 3 DAA) | % Injury ([1]; 140 g ai/ha, 6 DAA) | % Injury ([1]; 140 g ai/ha, 6 HAA) | % Injury ([1]; 140 g ai/ha, 14 DAA) | % Injury ([1]; 280 g ai/ha, 1 DAA) [b %] | % Injury ([1]; 280 g ai/ha, 3 DAA) | % Injury ([1]; 280 g ai/ha, 6 DAA) | % Injury ([1]; 280 g ai/ha, 6 HAA) | % Injury ([1]; 280 g ai/ha, 14 DAA) | % Injury ([1]; 560 g ai/ha, 1 DAA) [b %] | % Injury ([1]; 560 g ai/ha, 3 DAA) | % Injury ([1]; 560 g ai/ha, 6 DAA) | % Injury ([1]; 560 g ai/ha, 6 HAA) [b %] | % Injury ([1]; 560 g ai/ha, 14 DAA) | % Injury ([2]; 140 g ai/ha, 1 DAA) [a %] | % Injury ([2]; 140 g ai/ha, 3 DAA) | % Injury ([2]; 140 g ai/ha, 6 DAA) | % Injury ([2]; 140 g ai/ha, 6 HAA) [b %] | % Injury ([2]; 140 g ai/ha, 14 DAA) [b %] | further results
1 | Nc1c(Cl)c(F)nc(OCCCC(=O)O)c1Cl [Fluroxypyr-b, fluroxypyr-B] | 3 | 2d % | 2c % | 6.5b % | 0c % | 2 | 2.3d % | 2.8c % | 7.8b % | 0c % | 3.5 | 2d % | 2.8c % | 8 | 2c % | 21.8 | 32.5bc % | 37.5a % | 17.8 | 56.3 | % Injury ([2]; 280 g ai/ha, 1 DAA): 24.3a %; % Injury ([2]; 280 g ai/ha, 3 DAA): 33.8bc %; % Injury ([2]; 280 g ai/ha, 6 DAA): 41.3a %; % Injury ([2]; 280 g ai/ha, 6 HAA): 21.3ab %; % Injury ([2]; 280 g ai/ha, 14 DAA): 62.5ab %; % Injury ([2]; 560 g ai/ha, 1 DAA): 22.3a %; % Injury ([2]; 560 g ai/ha, 3 DAA): 31.3c %; % Injury ([2]; 560 g ai/ha, 6 DAA): 41.3a %; % Injury ([2]; 560 g ai/ha, 6 HAA): 20ab %; % Injury ([2]; 560 g ai/ha, 14 DAA): 61.3ab %
2 | O=C(O)CCCOc1nc(Cl)c(Cl)cc1Cl [Triclopyr-b, triclopyr-B] | 0.5 | 1a % | 1.5a % | 3.8c % | 0a % | 2 | 2a % | 2.8a % | 5.3c % | 0a % | 2.8 | 3.5a % | 4.3a % | 8.5 | 0a % | 20.5 | 26.7a % | 25b % | 12.8 | 47.5 | % Injury ([2]; 280 g ai/ha, 1 DAA): 21.5a %; % Injury ([2]; 280 g ai/ha, 3 DAA): 27.5a %; % Injury ([2]; 280 g ai/ha, 6 DAA): 33.8a %; % Injury ([2]; 280 g ai/ha, 6 HAA): 7.3b %; % Injury ([2]; 280 g ai/ha, 14 DAA): 57.5ab %; % Injury ([2]; 560 g ai/ha, 1 DAA): 18.8a %; % Injury ([2]; 560 g ai/ha, 3 DAA): 33.8a %; % Injury ([2]; 560 g ai/ha, 6 DAA): 35a %; % Injury ([2]; 560 g ai/ha, 6 HAA): 8.3b %; % Injury ([2]; 560 g ai/ha, 14 DAA): 51.3ab %
